Measurements published in patent EP4799617A1, “PHARMACEUTICAL COMPOSITION HAVING JAK INHIBITORY EFFECT” (Orxes Chinese Medicine (Shanghai) Co., Ltd., priority 2024, dated 2025).

How the values were obtained:
C57/BL-6 mice = assay: Hair growth of depilated mice after 9 days of gavage administration (dorsal images, hair score by IMAGE J); assay type: in vivo; conditions: first 9 days after depilation
Procedure: (§1) 60 male C57/BL-6 mice aged 6-8 weeks were evenly divided into 6 groups with 10 mice per group. These groups were: a control group, a model group, a CE (15 mg/kg) group, a CE (30 mg/kg) group, a BT (1 mg/kg) group, and a CE+BT (15+0.5 mg/kg) group. After 1 week of normal feeding, the dorsal hair of the mice was shaved using a depilatory device to prepare the skin (2×3 cm^2). Then, depilatory cream was applied to the prepared skin area to ensure complete removal of the hair on the back of the mice. From the day after depilation, each group of mice was administered once daily by gavage.
The substances to be administered were prepared as follows: The aqueous solution of 0.5% sodium carboxymethylcellulose: First, 0.5 g of sodium carboxymethylcellulose powder was added to 100 mL of distilled water, and then the mixture was placed in a water bath and heated at 60-70 °C. […]
Images of the dorsal region of the mice were captured at key time points of hair growth (i.e. Day 0 and Day 9), respectively. In addition, the gray values in the depilated areas on the dorsal region of the mice in Figure a were analyzed using IMAGE J software (National Institutes of Health, USA) to obtain hair scores. In Figure b, the hair scores represent the quantified gray values of the hair on the back skin of the mice.

[1] = system: mice with cyclophosphamide-induced alopecia areata; assay: Preventive effect on hair loss in cyclophosphamide-induced alopecia areata (dorsal images); assay type: in vivo; conditions: gavage, Day 7 after CP injection, versus model group
Procedure: (§2) On Day 9 of administration in the aforementioned experiment, cyclophosphamide (abbreviated as CP) was intraperitoneally injected to each mouse in the model group (not administered with CE and/or BT), the CE (15 mg/kg) group, the CE (30 mg/kg) group, the BT (1 mg/kg) group, and the CE+BT (15+0.5 mg/kg) group to establish the AA model. The method for establishing the model is described in the literature: "Effect of CeO2 Nanoenzyme on Hair Growth of Mice with Cyclophosphamide-Induced Alopecia Areata", PENG Xinxin et al., J Shanxi Med Univ, Feb. 2024, Vol. 55, No. 2, p.192.
Whether the model has been successfully established was determined by observing the hair loss in each group of mice, wherein the onset of hair loss indicated the successful model establishment.
Images of the dorsal region of the mice were captured on Day 9 of administration (Day 0 after CP injection), Day 14 (Day 5after CP injection), and Day 16 (Day 7 after CP injection). In Figure 2, gavage administration was used for administering CE and/or BT to the mice in the CE (15 mg/kg) group, the CE (30 mg/kg) group, the BT (1 mg/kg) group, and the CE+BT (15+0.5 mg/kg) group; and intraperitoneal injection was used for administering CP to the mice in the model group, the CE (15 mg/kg) group, the CE (30 mg/kg) group, the BT (1 mg/kg) group, and the CE+BT (15+0.5 mg/kg) group. […]

[2] = system: mice with cyclophosphamide-induced alopecia areata; assay: Hair length (vernier caliper) and hair weight (balance) after the final administration; assay type: in vivo; conditions: gavage once daily, after final administration (Day 28); for Hair length: CP-induced alopecia areata mice; for Hair weight: regrown hair of depilated area
Procedure: as §1, §2
After the final administration (on Day 28), the length of dorsal hair of the mice in each group was measured using a vernier caliper. Subsequently, the regrown hair in the original depilated area was removed using a depilatory device, and was weighed using a balance. Table 2 Effects of CE, BT and CE+BT on hair length and hair weight in the mice with cyclophosphamide-induced alopecia areata

[3] = system: JAK3/STAT3 signaling pathway; assay: Western blotting of p-JAK3/JAK3 and p-STAT3/STAT3 in mouse skin tissue; assay type: in vivo, mice; conditions: Western blot gray values, versus model group
Procedure: The expression levels of p-JAK3/JAK3 and p-STAT3/STAT3 proteins were detected by Western blotting using the half of the skin samples that were stored in the freezer at -80°C as described in Example 2. • p-JAK3: purchased from Absin, Cat No.: abs139988; • JAK3: purchased from Absin, Cat No.: abs115170; • p-STAT3: purchased from Absin, Cat No.: abs130919; • STAT3: purchased from Absin, Cat No.: abs155916.
The mouse skin samples stored at -80°C were taken out. 50 mg of skin tissue was cut with surgical scissors from each sample and respectively placed into 2 mL EP tubes. 500 µL of RIPA lysis buffer (available from Servicebio, Cat No.: G2002-100ML) (containing 5µL of protease inhibitor PMSF, available from Servicebio, Cat No.: G2008-1ML) was added to each EP tube. The skin was then disrupted by a cell grinding rod that is inserted into the 2 mL EP tube. […]
The total protein concentration in the supernatant was determined using a BCA kit (G2026-200T, Servicebio) following the protocol in the instruction manual. […]
The previously prepared resolving gel and stacking gel were clamped onto the main body of the gel-casting apparatus, with the stacking gel on the top and the resolving gel on the bottom. […] The gel casting apparatus was then disassembled and placed in the transfer buffer (Cat No.: G2028-1L, available from Servicebio) to be ready for subsequent membrane transfer procedure. […]

`C[C@@H]1CC[C@H]2C(C)(C)[C@H]3C[C@@]12CC[C@@]3(C)O` [CE, cedrol] was tested, and the hair growth (C57/BL-6 mice; CE 15 mg/kg) was “significant hair growth”, the hair growth (C57/BL-6 mice; CE 30 mg/kg) was “significant hair growth” and the hair loss ([1]; CE 15 mg/kg) was “significantly better than that of the model group”. The hair loss ([1]; CE 30 mg/kg) was “significantly better than that of the model group”, the Hair length ([2]; CE 15 mg/kg) was 5.98±1.22 mm and the Hair weight ([2]; CE 15 mg/kg) was 35.38 ± 6.88 mg. For the same molecule, the Hair length ([2]; CE 30 mg/kg) was 6.78±1.32 mm, the Hair weight ([2]; CE 30 mg/kg) was 43.51 ± 6.45 mg and the “relative viabilities of p-JAK3/JAK3 and p-STAT3/STAT3” value ([3]; CE 15 mg/kg) was “significantly different from that in the model group”. For the same molecule, the “relative viabilities of p-JAK3/JAK3 and p-STAT3/STAT3” value ([3]; CE 30 mg/kg) was “significantly different from that in the model group”.

`CCS(=O)(=O)N1CC(CC#N)(n2cc(-c3ncnc4[nH]ccc34)cn2)C1` [BT, baricitinib] showed a Hair length ([2]; BT 1 mg/kg) of 6.51±0.61 mm and a Hair weight ([2]; BT 1 mg/kg) of 38.62 ± 6.02 mg.
